In patent publication US9193722B2, “Tri-cyclic pyrazolopyridine kinase inhibitors” (Vertex Pharmaceuticals Incorporated, priority 2008, dated 2015):
Values belong to the compound of their own block, whether it stands above or below them.

Key:
Format in all cases: biochemical
[1] = biological target: PKC alpha kinase (Homo sapiens, UniProt P17252); assay: PKC alpha kinase inhibition, coupled-enzyme (NADH absorbance) assay, Ki; conditions: 130 μM ATP, 4.5 nM PKC alpha kinase, 30° C.
Procedure: (§1) An assay buffer solution was prepared which consisted of 100 mM HEPES (pH 7.5), 10 mM MgCl2, 25 mM NaCl, 0.1 mM EDTA, 100 μM CaCl2 and 0.01% Brij. […] To 16 μL of this enzyme buffer, in a 384 well plate, was added 1 μL of VRT stock solution in DMSO. The mixture was allowed to equilibrate for 10 mins at 30° C. The enzyme reaction was initiated by the addition of 16 μL stock ATP solution prepared in assay buffer to a final assay concentration of 130 μM. Initial rate data was determined from the rate of change of absorbance at 340 nm (corresponding to stoichiometric consumption of NADH) using a Molecular Devices Spectramax plate reader (Sunnyvale, Calif.) over 15 mins at 30° C. […] Ki values were calculated from initial rate data by non-linear regression using the Prism software package (Prism 4.0a, Graphpad Software, San Diego, Calif.).

[2] = biological target: PKC theta kinase (Homo sapiens, UniProt Q04759); assay: PKC theta kinase inhibition, coupled-enzyme (NADH absorbance) assay, Ki; conditions: 240 μM ATP, 18 nM PKC theta kinase, 30° C.
Procedure: An assay buffer solution was prepared which consisted of 100 mM HEPES (pH 7.5), 10 mM MgCl2, 25 mM NaCl, 0.1 mM EDTA and 0.01% Brij. […] To 60 μL of this enzyme buffer, in a 384 well plate, was added 2 μL of VRT stock solution in DMSO. The mixture was allowed to equilibrate for 10 mins at 30° C. […] Ki values were calculated from initial rate data by non-linear regression using the Prism software package (Prism 4.0a, Graphpad Software, San Diego, Calif.).

[3] = biological target: PKC delta kinase (Homo sapiens, UniProt Q05655); assay: PKC delta kinase inhibition, coupled-enzyme (NADH absorbance) assay, Ki; conditions: 150 μM ATP, 46 nM PKC delta kinase, 30° C.; read-out: Ki PKC delta
Procedure: as §1, with “EDTA” for “EDTA, 100 μM CaCl2”, “150” for “130”

Sequence of PKC delta kinase (Q05655 whole entry): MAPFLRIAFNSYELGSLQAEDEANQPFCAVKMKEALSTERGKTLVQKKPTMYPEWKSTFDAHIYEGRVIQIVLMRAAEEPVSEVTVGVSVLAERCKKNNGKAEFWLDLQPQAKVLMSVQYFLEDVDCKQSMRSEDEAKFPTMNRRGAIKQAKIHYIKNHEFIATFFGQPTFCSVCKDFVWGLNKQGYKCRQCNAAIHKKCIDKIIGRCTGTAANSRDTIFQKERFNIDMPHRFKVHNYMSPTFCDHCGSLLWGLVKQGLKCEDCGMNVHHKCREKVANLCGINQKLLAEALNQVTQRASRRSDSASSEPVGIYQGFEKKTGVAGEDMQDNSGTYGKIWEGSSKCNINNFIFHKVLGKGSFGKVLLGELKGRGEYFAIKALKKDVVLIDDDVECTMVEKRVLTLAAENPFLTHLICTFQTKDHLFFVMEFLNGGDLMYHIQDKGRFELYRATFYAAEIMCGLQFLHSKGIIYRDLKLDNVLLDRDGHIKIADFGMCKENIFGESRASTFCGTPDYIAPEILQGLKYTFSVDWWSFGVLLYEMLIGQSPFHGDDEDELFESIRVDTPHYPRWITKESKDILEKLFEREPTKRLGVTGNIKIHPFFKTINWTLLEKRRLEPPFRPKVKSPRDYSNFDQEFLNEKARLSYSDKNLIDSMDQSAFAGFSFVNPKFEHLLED
Sequence of PKC theta kinase (Q04759 whole entry): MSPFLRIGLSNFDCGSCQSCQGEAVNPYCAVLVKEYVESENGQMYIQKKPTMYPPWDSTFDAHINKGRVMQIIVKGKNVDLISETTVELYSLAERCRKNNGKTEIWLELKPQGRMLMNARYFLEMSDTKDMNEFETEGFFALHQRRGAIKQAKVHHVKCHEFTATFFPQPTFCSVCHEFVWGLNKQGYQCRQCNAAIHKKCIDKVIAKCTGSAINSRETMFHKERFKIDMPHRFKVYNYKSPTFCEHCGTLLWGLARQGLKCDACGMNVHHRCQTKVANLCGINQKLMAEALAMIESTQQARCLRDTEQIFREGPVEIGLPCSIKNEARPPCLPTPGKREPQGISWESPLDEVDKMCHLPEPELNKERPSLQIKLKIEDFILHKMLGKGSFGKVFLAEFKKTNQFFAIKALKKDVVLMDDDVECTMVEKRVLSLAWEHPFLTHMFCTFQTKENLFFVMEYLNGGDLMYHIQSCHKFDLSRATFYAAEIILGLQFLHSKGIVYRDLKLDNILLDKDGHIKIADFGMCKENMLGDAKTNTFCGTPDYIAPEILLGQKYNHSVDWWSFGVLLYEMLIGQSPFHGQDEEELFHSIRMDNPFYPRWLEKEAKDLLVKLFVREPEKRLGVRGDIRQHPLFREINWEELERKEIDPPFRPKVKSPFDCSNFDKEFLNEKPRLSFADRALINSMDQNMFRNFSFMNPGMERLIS

Compound: OC1CCN(c2cccc(-c3n[nH]c4ncccc34)n2)CC1 [Compound 22]
Ki [1]: > 1.25 µM
Ki [2]: > 0.7 µM
Ki [3]: > 2 µM

Compound: CC1CN(c2cccc(-c3n[nH]c4ncccc34)n2)C(C)CN1 (stereo not drawn) [Compound 23]
Ki [1]: > 1.25 µM
Ki [2]: > 0.7 µM
Ki [3]: > 2 µM

Compound: CNC1CCN(c2cccc(-c3n[nH]c4ncccc34)n2)C1 (stereo not drawn) [Compound 24]
Ki [1]: > 1.25 µM
Ki [2]: < 2.8 µM
Ki [3]: > 2 µM

Compound: FC(F)(F)C1CN(c2cccc(-c3n[nH]c4ncccc34)n2)CCN1 (stereo not drawn) [Compound 25]
Ki [1]: > 1.25 µM
Ki [2]: < 0.5 µM
Ki [3]: < 2.8 µM

Compound: CN1CCN(c2cccc(-c3n[nH]c4ncccc34)n2)CC1 [Compound 26]
Ki [1]: > 1.25 µM
Ki [2]: < 0.5 µM
Ki [3]: > 2 µM

Compound: C[C@@H]1CNCCN1c1cccc(-c2n[nH]c3ncccc23)n1 [Compound 31]
Ki [1]: > 1.25 µM
Ki [2]: < 0.5 µM
Ki [3]: < 2.8 µM

Compound: N[C@@H]1CCN(c2cccc(-c3n[nH]c4ncccc34)n2)C1 [Compound 33]
Ki [1]: > 1.25 µM
Ki [2]: < 0.5 µM
Ki [3]: < 2.8 µM

Compound: c1ccc(C[C@H]2CN(c3cccc(-c4n[nH]c5ncccc45)n3)CCN2)cc1 [Compound 37]
Ki [1]: > 1.25 µM
Ki [2]: < 0.05 µM
Ki [3]: < 2.8 µM

Compound: Cc1ccc(-c2n[nH]c3ncccc23)nc1N1CCN[C@@H](CC(C)C)C1 [Compound 40]
Ki [1]: > 1.25 µM
Ki [2]: < 0.5 µM
Ki [3]: < 2.8 µM

Compound: c1cc(-c2n[nH]c3ncccc23)nc(N2CCNC(C3CC3)C2)c1 (stereo not drawn) [Compound 41]
Ki [1]: > 1.25 µM
Ki [2]: < 0.05 µM
Ki [3]: < 0.5 µM

Compound: Fc1cnc2[nH]nc(-c3nc(N4CCNCC4)ccc3C(F)(F)F)c2c1 [Compound 45]
Ki [1]: > 1.25 µM
Ki [2]: < 0.5 µM
Ki [3]: > 2 µM

Compound: CC(C)C[C@H]1CN(c2ccc(-c3ccccc3)c(-c3n[nH]c4ncccc34)n2)CCN1 [Compound 49]
Ki [1]: > 1.25 µM
Ki [2]: < 0.5 µM
Ki [3]: < 2.8 µM

Compound: c1ccc(-c2ccc(N3CCNCC3)nc2-c2n[nH]c3ncccc23)cc1 [Compound 50]
Ki [1]: > 1.25 µM
Ki [2]: > 0.7 µM
Ki [3]: > 2 µM

Compound: C=Cc1ccc(N2CCN[C@@H](CC(C)C)C2)nc1-c1n[nH]c2ncccc12 [Compound 51]
Ki [1]: > 1.25 µM
Ki [2]: > 0.7 µM
Ki [3]: > 2 µM

Compound: C=Cc1ccc(N2CCNCC2)nc1-c1n[nH]c2ncccc12 [Compound 52]
Ki [1]: > 1.25 µM
Ki [2]: < 0.5 µM
Ki [3]: < 2.8 µM

Compound: C=C(F)c1cc(-c2n[nH]c3ncccc23)nc(N2CCN[C@@H](CC(C)C)C2)c1 [Compound 55]
Ki [1]: > 1.25 µM
Ki [2]: < 0.05 µM
Ki [3]: < 2.8 µM

Compound: Cc1cc(-c2n[nH]c3ncccc23)nc(N2CCN[C@@H](CC(C)C)C2)c1 [Compound 56]
Ki [1]: > 1.25 µM
Ki [2]: < 0.5 µM
Ki [3]: < 2.8 µM

Compound: CC(C)C[C@H]1CN(c2cc(C(F)(F)F)cc(-c3n[nH]c4ncccc34)n2)CCN1 [Compound 57]
Ki [1]: > 1.25 µM
Ki [2]: < 0.5 µM
Ki [3]: > 2 µM

The remaining lines, values ahead:

Ki [1]: > 1.25 µM
Ki [2]: < 0.5 µM
Ki [3]: > 2 µM
Compound: CC[C@H]1CN(c2cccc(-c3n[nH]c4ncccc34)n2)C[C@H](CC(C)C)N1 [Compound 12]

Ki [1]: < 2.8 µM
Ki [2]: < 0.05 µM
Ki [3]: < 0.5 µM
Compound: CC[C@@H]1CN(c2cccc(-c3n[nH]c4ncccc34)n2)C[C@H](CC(C)C)N1 [Compound 13]

Ki [1]: > 1.25 µM
Ki [2]: < 0.5 µM
Ki [3]: < 2.8 µM
Compound: CCC[C@H]1CN(c2cccc(-c3n[nH]c4ncccc34)n2)C[C@H](CC(C)C)N1 [Compound 14]

Ki [1]: < 2.8 µM
Ki [2]: < 0.05 µM
Ki [3]: < 0.5 µM
Compound: CCC[C@@H]1CN(c2cccc(-c3n[nH]c4ncccc34)n2)C[C@H](CC(C)C)N1 [Compound 15]

Ki [1]: < 2.8 µM
Ki [2]: < 0.5 µM
Ki [3]: > 2 µM
Compound: Cc1cccc(C2CN(c3cccc(-c4n[nH]c5ncccc45)n3)CCN2)c1 (stereo not drawn) [Compound 16]

Ki [1]: < 2.8 µM
Ki [2]: < 0.5 µM
Ki [3]: > 2 µM
Compound: Cc1ccc(C2CN(c3cccc(-c4n[nH]c5ncccc45)n3)CCN2)cc1 (stereo not drawn) [Compound 17]

Ki [1]: < 2.8 µM
Ki [2]: < 0.05 µM
Ki [3]: < 2.8 µM
Compound: Clc1cccc(C2CN(c3cccc(-c4n[nH]c5ncccc45)n3)CCN2)c1 (stereo not drawn) [Compound 18]

Ki [1]: > 1.25 µM
Ki [2]: > 0.7 µM
Ki [3]: > 2 µM
Compound: CC(=O)N1CCN(c2cccc(-c3n[nH]c4ncccc34)n2)CC1 [Compound 20]

Ki [1]: < 2.8 µM
Ki [2]: > 0.7 µM
Ki [3]: > 2 µM
Compound: c1cc(-c2n[nH]c3ncccc23)nc(N2CCOCC2)c1 [Compound 27]

Ki [1]: < 2.8 µM
Ki [2]: < 0.05 µM
Ki [3]: < 0.5 µM
Compound: FC(F)(F)CC1CN(c2cccc(-c3n[nH]c4ncccc34)n2)CCN1 (stereo not drawn) [Compound 28]

Ki [1]: < 2.8 µM
Ki [2]: < 0.5 µM
Ki [3]: > 2 µM
Compound: CC(C)C[C@H]1CN(c2ccc(C(F)(F)F)c(-c3n[nH]c4ncc(Br)cc34)n2)CCN1 [Compound 29]

Ki [1]: < 0.5 µM
Ki [2]: < 0.05 µM
Ki [3]: < 0.5 µM
Compound: C[C@H]1CNCCN1c1cccc(-c2n[nH]c3ncccc23)n1 [Compound 30]

Ki [1]: < 0.5 µM
Ki [2]: < 0.05 µM
Ki [3]: < 0.5 µM
Compound: Cc1ccccc1C1CN(c2cccc(-c3n[nH]c4ncccc34)n2)CCN1 (stereo not drawn) [Compound 32]

Ki [1]: < 0.5 µM
Ki [2]: < 0.5 µM
Ki [3]: > 2 µM
Compound: CN1CCCN(c2cccc(-c3n[nH]c4ncccc34)n2)CC1 [Compound 34]

Ki [1]: < 0.5 µM
Ki [2]: < 0.5 µM
Ki [3]: > 2 µM
Compound: COc1cccc(C2CN(c3cccc(-c4n[nH]c5ncccc45)n3)CCN2)c1 (stereo not drawn) [Compound 35]

Ki [1]: < 2.8 µM
Ki [2]: < 0.05 µM
Ki [3]: < 0.5 µM
Compound: CC(C)(O)CC1CN(c2cccc(-c3n[nH]c4ncccc34)n2)CCN1 (stereo not drawn) [Compound 36]

Ki [1]: < 0.5 µM
Ki [2]: < 0.05 µM
Ki [3]: < 0.5 µM
Compound: CC(C)C[C@H]1CN(c2cccc(-c3n[nH]c4ncc(Cl)cc34)n2)CCN1 [Compound 38]

Ki [1]: < 2.8 µM
Ki [2]: < 0.05 µM
Ki [3]: < 0.5 µM
Compound: CC(C)C[C@H]1CN(c2cncc(-c3n[nH]c4ncccc34)n2)CCN1 [Compound 39, (S)-3-(6-(3-isobutylpiperazin-1-yl)pyrazin-2-yl)-1H-pyrazolo[3,4-b]pyridine]

Ki [1]: < 0.5 µM
Ki [2]: < 0.5 µM
Ki [3]: < 0.5 µM
Compound: Clc1cnc2[nH]nc(-c3cccc(N4CCNCC4)n3)c2c1 [Compound 42]

Ki [1]: < 0.5 µM
Ki [2]: < 0.5 µM
Ki [3]: < 0.5 µM
Compound: C[C@H]1CN(c2cccc(-c3n[nH]c4ncc(Cl)cc34)n2)CCN1 [Compound 43]

Ki [1]: < 2.8 µM
Ki [2]: < 0.05 µM
Ki [3]: < 2.8 µM
Compound: CC(C)C[C@H]1CN(c2ccc(C(F)(F)F)c(-c3n[nH]c4ncc(F)cc34)n2)CCN1 [Compound 44]

Ki [1]: < 2.8 µM
Ki [2]: < 0.05 µM
Ki [3]: < 0.5 µM
Compound: CC(C)C[C@@H]1CN(c2cccc(-c3n[nH]c4ncc(F)cc34)n2)CCN1 [Compound 46]

Ki [1]: < 2.8 µM
Ki [2]: < 0.05 µM
Ki [3]: < 0.5 µM
Compound: CC(C)C[C@H]1CN(c2ccc(Cl)c(-c3n[nH]c4ncccc34)n2)CCN1 [Compound 47]

Ki [1]: < 2.8 µM
Ki [2]: < 0.5 µM
Ki [3]: < 2.8 µM
Compound: Clc1ccc(N2CCNCC2)nc1-c1n[nH]c2ncccc12 [Compound 48]

Ki [1]: < 2.8 µM
Ki [2]: < 0.05 µM
Ki [3]: < 0.5 µM
Compound: CC(F)(F)CC1CN(c2cccc(-c3n[nH]c4ncccc34)n2)CCN1 (stereo not drawn) [Compound 54]
